Values after ≈ are worked out from the molar mass of the structure shown. Active and inactive are the calls of the source. No cut-off for these calls is given here.
Experiments:
[1] = Apparent permeability of compound in human Caco-2 cells; format: ADME, cell-based
[2] = Metabolic stability in human liver s9 fraction measured at 60 mins; format: ADME, subcellular; details: read-out: Stability
[3] = Aqueous solubility of compound in PBS at pH 7.2; format: physicochemical
[4] = target: [Pyruvate dehydrogenase (acetyl-transferring)] kinase isozyme 2, mitochondrial (Homo sapiens, UniProt Q15119); assay: Inhibition of human recombinant PDHK2 assessed as residual PDH activity in presence of ATP using sodium pyruvate/Coenzyme A/thiamine pyrophosphate as substrates incubated for 90 mins by UV-transparent microplate analysis
[5] = target: [Pyruvate dehydrogenase (acetyl-transferring)] kinase isozyme 4, mitochondrial (Homo sapiens, UniProt Q16654); assay: Inhibition of PDHK4 (unknown origin)
Sequence of [Pyruvate dehydrogenase (acetyl-transferring)] kinase isozyme 4, mitochondrial (Q16654 whole entry): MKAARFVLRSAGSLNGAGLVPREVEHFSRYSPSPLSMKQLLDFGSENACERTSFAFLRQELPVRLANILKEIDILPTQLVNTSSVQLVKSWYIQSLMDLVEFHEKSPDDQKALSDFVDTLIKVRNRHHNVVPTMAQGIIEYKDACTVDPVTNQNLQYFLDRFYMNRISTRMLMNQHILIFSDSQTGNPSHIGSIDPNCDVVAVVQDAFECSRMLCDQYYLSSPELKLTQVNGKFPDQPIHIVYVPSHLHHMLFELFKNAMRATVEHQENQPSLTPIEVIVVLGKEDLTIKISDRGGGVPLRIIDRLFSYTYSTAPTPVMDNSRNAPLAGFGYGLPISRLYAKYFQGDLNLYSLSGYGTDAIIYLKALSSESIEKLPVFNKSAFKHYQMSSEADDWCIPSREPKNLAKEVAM

[6] = Oral bioavailability in Sprague-Dawley rat at 10 mg/kg measured for 25 hrs by LC-MS/MS analysis; format: ADME, organism-based; details: in vivo
[7] = Drug concentration in Sprague-Dawley rat at 10 mg/kg, po measured at 25 hrs by LC-MS/MS analysis; format: ADME, organism-based; details: in vivo, read-out: Drug uptake
[8] = Volume of distribution at steady state in Sprague-Dawley rat at 1 mg/kg, iv measured for 25 hrs by LC-MS/MS analysis; format: ADME, organism-based; details: in vivo, read-out: Vdss
[9] = Cmax in Sprague-Dawley rat at 10 mg/kg, po measured for 25 hrs by LC-MS/MS analysis; format: ADME, organism-based; details: in vivo
[10] = MRT in Sprague-Dawley rat at 1 mg/kg, iv measured for 25 hrs by LC-MS/MS analysis; format: ADME, organism-based; details: in vivo
[11] = AUC in Sprague-Dawley rat at 10 mg/kg, po measured for 25 hrs by LC-MS/MS analysis; format: ADME, organism-based; details: in vivo
[12] = Total body clearance in Sprague-Dawley rat at 1 mg/kg, iv measured for 25 hrs by LC-MS/MS analysis; format: ADME, organism-based; details: in vivo
Rattus norvegicus [13] = assay: Antidiabetic activity against Zucker fatty rats assessed as decrease in glucose level in plasma at 10 mg/kg administered for 28 days; format: functional, organism-based; details: time 28.0 day
[14] = Drug concentration in Sprague-Dawley rat at 10 mg/kg, po measured at 8 hrs by LC-MS/MS analysis; format: ADME, organism-based; details: in vivo, read-out: Drug uptake
Rattus norvegicus [15] = species: Rattus norvegicus; assay: Antidiabetic activity against Sprague-Dawley rat assessed as PDH activity in liver measured at 6 hrs; format: functional, organism-based; details: dose 0.1-10 mg/kg, route po
[16] = AUC in Sprague-Dawley rat at 1 mg/kg, iv measured for 25 hrs by LC-MS/MS analysis; format: ADME, organism-based; details: in vivo

SMILES: OCCn1cc(-c2cccc3c2-c2ccccc2C3(O)C(F)(F)F)cn1 (racemic)
- Papp [1]: 68 ×10⁻⁶ cm/s
- remaining at 1 h [2]: 94%
- solubility [3]: 92 µM (≈ 33.2 µg/mL)

SMILES: O=C(O)CCCOc1ccc2c(c1)C(O)(C(F)(F)F)c1ccccc1-2 (racemic)
- Papp [1]: 61.5 ×10⁻⁶ cm/s
- remaining at 1 h [2]: 92%
- solubility [3]: ≥ 95 µM

SMILES: CNC(=O)Cn1cc(-c2cccc3c2-c2ccccc2C3(O)C(F)(F)F)cn1 (racemic)
- Papp [1]: 51.2 ×10⁻⁶ cm/s
- remaining at 1 h [2]: 93%
- solubility [3]: 94 µM (≈ 36.4 µg/mL)

SMILES: OC1(C(F)(F)F)c2ccccc2-c2c(-c3cnco3)cccc21 (racemic)
- Papp [1]: 51.1 ×10⁻⁶ cm/s
- remaining at 1 h [2]: 61%
- solubility [3]: 17 µM (≈ 5.39 µg/mL)

SMILES: CC(C)C1(O)c2ccccc2-c2ncccc21 (racemic)
- IC50 [4]: 12000 nM
- remaining at 1 h [2]: 97%
- solubility [3]: 94 µM (≈ 21.2 µg/mL)

SMILES: O=C(c1cc(-c2cnn(CCO)c2)c2c(c1)C(O)(C(F)(F)F)c1ccccc1-2)N1CCC1 (racemic)
- Papp [1]: 6.5 ×10⁻⁶ cm/s
- remaining at 1 h [2]: 94%

SMILES: OC1(C(F)(F)F)c2ccccc2-c2ccccc21
- Papp [1]: 56.8 ×10⁻⁶ cm/s
- IC50 [4]: 5900 nM
- solubility [3]: 87 µM (≈ 21.8 µg/mL)

SMILES: OCCn1cc(-c2cc(F)cc3c2-c2ccccc2C3(O)C(F)(F)F)cn1 (stereo not drawn)
- Papp [1]: 59.8 ×10⁻⁶ cm/s
- IC50 [4]: 20 nM
- remaining at 1 h [2]: 97%

SMILES: O=C1CCCN1c1ccc2c(c1)C(O)(C(F)(F)F)c1ccccc1-2 (racemic)
- Papp [1]: 39.5 ×10⁻⁶ cm/s
- remaining at 1 h [2]: 29%
- solubility [3]: 83 µM (≈ 27.7 µg/mL)

SMILES: O=C(c1ccc2c(c1)C(O)(C(F)(F)F)c1ccccc1-2)N1CCC1 (racemic)
- Papp [1]: 47.5 ×10⁻⁶ cm/s
- IC50 [4]: 170 nM
- remaining at 1 h [2]: 49%
- solubility [3]: 93 µM (≈ 31 µg/mL)

SMILES: OC1(C(F)(F)F)c2ccccc2-c2c(-c3cccnc3)cccc21 (racemic)
- Papp [1]: 18 ×10⁻⁶ cm/s
- remaining at 1 h [2]: 80%
- solubility [3]: 0.38 µM (≈ 0.124 µg/mL)

SMILES: OCCCCOc1ccc2c(c1)C(O)(C(F)(F)F)c1ccccc1-2 (racemic)
- Papp [1]: 48.3 ×10⁻⁶ cm/s
- solubility [3]: 85 µM (≈ 28.8 µg/mL)

SMILES: COC(=O)c1ccc2c(c1)C(O)(C(F)(F)F)c1ccccc1-2 (racemic)
- Papp [1]: 34.5 ×10⁻⁶ cm/s
- IC50 [4]: 600 nM
- solubility [3]: 45 µM (≈ 13.9 µg/mL)

SMILES: OC1(C(F)(F)F)c2ccccc2-c2c(-c3cncnc3)cccc21 (racemic)
- Papp [1]: 56.2 ×10⁻⁶ cm/s
- remaining at 1 h [2]: 96%
- solubility [3]: 4.6 µM (≈ 1.51 µg/mL)

SMILES: Cn1cc(-c2cc(OCCCC(=O)O)cc3c2-c2ccccc2C3(O)C(F)(F)F)cn1 (stereo not drawn)
- Papp [1]: 28.4 ×10⁻⁶ cm/s
- IC50 [4]: 20 nM
- remaining at 1 h [2]: 91%

SMILES: Nc1nc(SCC(=O)c2ccccc2)nc2sc3c(c12)CCN(Cc1ccccc1)C3
- IC50 [4]: 1900 nM
- remaining at 1 h [2]: 6%
- solubility [3]: ≤ 0.3 µM

SMILES: COC(=O)c1cccc2c1-c1ccccc1C2(O)C(F)(F)F (racemic)
- Papp [1]: 17.4 ×10⁻⁶ cm/s
- IC50 [4]: 900 nM
- solubility [3]: 83 µM (≈ 25.6 µg/mL)

SMILES: Cc1cc(-c2cnn(CCO)c2)c2c(c1)C(O)(C(F)(F)F)c1ccccc1-2 (stereo not drawn)
- IC50 [5]: > 1000 nM
- bioavailability [6]: 140%
- Papp [1]: 54.3 ×10⁻⁶ cm/s
- concentration at 25 h [7]: 0.2 µM
- Vd [8]: 2.6 L/kg
- Cmax [9]: 4.4 µM
- MRT [10]: 3.9 h
- AUC at 25 h [11]: 57 µM·h
- IC50 [4]: 17 nM
- clearance [12]: 11.7 mL/min/kg
- remaining at 1 h [2]: 83%
- Activity (Rattus norvegicus [13]): Active
- concentration at 8 h [14]: 3.1 µM
- Activity (Rattus norvegicus [15]): Dose-Dependent Effect
- AUC at 25 h [16]: 4.1 µM·h

SMILES: CC(C)(C)Cn1cc(-c2cccc3c2-c2ccccc2C3(O)C(F)(F)F)cn1 (racemic)
- Papp [1]: 16.2 ×10⁻⁶ cm/s
- remaining at 1 h [2]: 84%
- solubility [3]: ≤ 0.4 µM

SMILES: Cn1cc(-c2cccc3c2-c2ccccc2C3(O)C(F)(F)F)cn1 (racemic)
- Papp [1]: 63.1 ×10⁻⁶ cm/s
- remaining at 1 h [2]: 62%
- solubility [3]: 6.9 µM (≈ 2.28 µg/mL)

SMILES: OC1(C(F)(F)F)c2ccccc2-c2ccc(-c3ccccc3)cc21 (racemic)
- Papp [1]: 9.8 ×10⁻⁶ cm/s
- solubility [3]: ≤ 0.4 µM

From ChEMBL document CHEMBL5576073, “Design and synthesis of novel fluorene derivatives as inhibitors of pyruvate dehydrogenase kinase” (Bioorg Med Chem Lett, 2024)
